From PubChem BioAssay AID256 (DTP/NCI, 2004)
“And” between values parts separate entries of the source, which are not always exact repeats. Identical values can stand only once. Inconclusive results and toxic doses are left out. How the source made its calls: active means survival T/C of 150% or more; inactive means T/C below 125% in these data.

Test system: CD2F1 mice, L1210 leukemia ip, survival T/C
Experiment: NCI In Vivo Anticancer Drug Screen. Data for tumor model L1210 Leukemia (intraperitoneal) in CD2F1 (CDF1) mice
Settings: higher = longer survival
Outline: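 Ratio T/C, where T is the treated-group value and C the vehicle-dosed control value, from mice implanted with a transplantable tumor.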

[1] = endpoint: mean survival time, dose: 100.0 mg/kg/injection, schedule: Q01DX001 (ip), vehicle: saline with Tween-80
[2] = endpoint: mean survival time, dose: 100.0 mg/kg/injection, schedule: Q04DX003 (ip), vehicle: saline with Tween-80
[3] = endpoint: mean survival time, dose: 200.0 mg/kg/injection, schedule: Q04DX003 (ip), vehicle: saline with Tween-80
[4] = endpoint: mean survival time, dose: 100.0 mg/kg/injection, schedule: Q01DX009 (ip), vehicle: saline with Tween-80
[5] = endpoint: mean survival time, dose: 200.0 mg/kg/injection, schedule: Q01DX009 (ip), vehicle: saline with Tween-80
[6] = endpoint: mean survival time, dose: 400.0 mg/kg/injection, schedule: Q01DX009 (ip), vehicle: saline with Tween-80
[7] = endpoint: mean survival time, dose: 50.0 mg/kg/injection, schedule: Q01DX009 (ip), vehicle: saline with Tween-80
[8] = endpoint: mean survival time, dose: 100.0 mg/kg/injection, schedule: Q01DX001 (ip), vehicle: saline
[9] = endpoint: mean survival time, dose: 200.0 mg/kg/injection, schedule: Q01DX001 (ip), vehicle: saline
[10] = endpoint: mean survival time, dose: 400.0 mg/kg/injection, schedule: Q01DX001 (ip), vehicle: saline
[11] = endpoint: mean survival time, dose: 25.0 mg/kg/injection, schedule: Q01DX009 (ip), vehicle: saline with Tween-80
[12] = endpoint: mean survival time, dose: 12.5 mg/kg/injection, schedule: Q01DX009 (ip), vehicle: saline with Tween-80
[13] = endpoint: mean survival time, dose: 400.0 mg/kg/injection, schedule: Q04DX003 (ip), vehicle: saline with Tween-80
[14] = endpoint: mean survival time, dose: 12.5 mg/kg/injection, schedule: Q04DX003 (ip), vehicle: saline
[15] = endpoint: mean survival time, dose: 25.0 mg/kg/injection, schedule: Q04DX003 (ip), vehicle: saline
[16] = endpoint: mean survival time, dose: 50.0 mg/kg/injection, schedule: Q04DX003 (ip), vehicle: saline

Measured: T/C

CSc1cc(C)[o+]c(C)c1
inactive: endpoint: mean survival time, dose: 12.5 mg/kg/injection, schedule: Q01DX009 (ip), vehicle: Klucel (hydroxypropylcellulose) (HPC) 94 % of control | endpoint: mean survival time, dose: 25.0 mg/kg/injection, schedule: Q01DX009 (ip), vehicle: Klucel (hydroxypropylcellulose) (HPC) 97 % of control | endpoint: mean survival time, dose: 50.0 mg/kg/injection, schedule: Q01DX009 (ip), vehicle: Klucel (hydroxypropylcellulose) (HPC) 108 % of control | endpoint: mean survival time, dose: 100.0 mg/kg/injection, schedule: Q01DX009 (ip), vehicle: Klucel (hydroxypropylcellulose) (HPC) 113 % of control | endpoint: mean survival time, dose: 200.0 mg/kg/injection, schedule: Q01DX009 (ip), vehicle: Klucel (hydroxypropylcellulose) (HPC) 117 % of control

Cc1nn(-c2ccc(Cl)cc2)c(C)c1N=O
inactive: [1] 104 % of control

CCc1ccc(C(C)(C)C)cc1
inactive: [2] 99 % of control | [3] 105 % of control

[CH3][Tl]([CH3])[Br]
inactive: endpoint: mean survival time, dose: 100.0 mg/kg/injection, schedule: Q04DX002 (ip), vehicle: saline with Tween-80 100 % of control | endpoint: mean survival time, dose: 200.0 mg/kg/injection, schedule: Q04DX002 (ip), vehicle: saline with Tween-80 96 % of control | endpoint: mean survival time, dose: 400.0 mg/kg/injection, schedule: Q04DX002 (ip), vehicle: saline with Tween-80 96 % of control

O=C(NC(=S)Nc1cccc(O)c1)c1cccc(Br)c1
inactive: [4] 96 % of control | [5] 96 % of control | [6] 97 % of control

Nc1ccc(-c2ccc(N)cc2O)c(O)c1
inactive: [7] 98 % of control | [4] 95 % of control

CC(=O)O[C@H]1CC[C@@]2(C)[C@@H](CC[C@@H]3[C@@H]2CC(=O)[C@]2(C)[C@@H]4[C@H](C[C@@H]32)O[C@]2(CC[C@@H](C)CO2)[C@H]4C)C1
inactive: [8] 96 % of control | [9] 101 % of control | [10] 98 % of control

O=C1CSC(c2cccs2)N1c1nncs1 (centres undefined)
inactive: endpoint: median survival time, dose: 25.0 mg/kg/injection, schedule: Q01DX005 (ip), vehicle: Klucel (hydroxypropylcellulose) (HPC) 94 % of control | endpoint: median survival time, dose: 50.0 mg/kg/injection, schedule: Q01DX005 (ip), vehicle: Klucel (hydroxypropylcellulose) (HPC) 102 % of control and 104 % of control and 110 % of control | endpoint: median survival time, dose: 100.0 mg/kg/injection, schedule: Q01DX005 (ip), vehicle: Klucel (hydroxypropylcellulose) (HPC) 94 % of control and 96 % of control and 103 % of control | endpoint: median survival time, dose: 200.0 mg/kg/injection, schedule: Q01DX005 (ip), vehicle: Klucel (hydroxypropylcellulose) (HPC) 116 % of control and 94 % of control (2×) | endpoint: median survival time, dose: 400.0 mg/kg/injection, schedule: Q01DX005 (ip), vehicle: Klucel (hydroxypropylcellulose) (HPC) 107 % of control | endpoint: median survival time, dose: 800.0 mg/kg/injection, schedule: Q01DX005 (ip), vehicle: Klucel (hydroxypropylcellulose) (HPC) 115 % of control

OC1(C2(O)CCCC2)CCCC1
inactive: [4] 105 % of control | [5] 111 % of control | [6] 103 % of control

CNc1ncnc2c1cnn2C1OC(CO)C(O)C1O (centres undefined)
inactive: endpoint: mean survival time, dose: 12.5 mg/kg/injection, schedule: Q01DX005 (ip), vehicle: water 93 % of control | endpoint: mean survival time, dose: 25.0 mg/kg/injection, schedule: Q01DX005 (ip), vehicle: water 102 % of control | endpoint: mean survival time, dose: 50.0 mg/kg/injection, schedule: Q01DX005 (ip), vehicle: water 104 % of control

CCCCCCCCCCCCCCCCCCCCCC(CC)CC
inactive: [1] 101 % of control | endpoint: mean survival time, dose: 200.0 mg/kg/injection, schedule: Q01DX001 (ip), vehicle: saline with Tween-80 107 % of control | endpoint: mean survival time, dose: 400.0 mg/kg/injection, schedule: Q01DX001 (ip), vehicle: saline with Tween-80 103 % of control

Cc1cc2sccc2cn1
inactive: [11] 100 % of control | [7] 98 % of control | [4] 98 % of control | [2] 90 % of control

C/C(=N\NC(N)=O)c1cccc(/C(C)=N/NC(N)=O)n1
inactive: endpoint: mean survival time, dose: 6.25 mg/kg/injection, schedule: Q01DX009 (ip), vehicle: saline with Tween-80 102 % of control and 103 % of control | [12] 103 % of control and 104 % of control | [11] 100 % of control and 101 % of control | [7] 98 % of control and 103 % of control | [4] 92 % of control and 102 % of control | [5] 91 % of control and 110 % of control

CCCCC1CCC(N)CC1 (centres undefined)
inactive: endpoint: mean survival time, dose: 100.0 mg/kg/injection, schedule: Q04DX003 (ip), vehicle: saline 96 % of control

CCOC(=O)c1cc2ccccc2n1-c1ccccc1
inactive: [2] 95 % of control | [3] 97 % of control | [13] 95 % of control

C=C(Br)CN(CC)C(C)=O
inactive: endpoint: mean survival time, dose: 12.5 mg/kg/injection, schedule: Q01DX009 (ip), vehicle: saline 102 % of control | [14] 96 % of control | endpoint: mean survival time, dose: 25.0 mg/kg/injection, schedule: Q01DX009 (ip), vehicle: saline 97 % of control | [15] 95 % of control | endpoint: mean survival time, dose: 50.0 mg/kg/injection, schedule: Q01DX009 (ip), vehicle: saline 114 % of control | [16] 104 % of control

Clc1[nH]nc2ccccc12
inactive: [12] 102 % of control | endpoint: mean survival time, dose: 12.5 mg/kg/injection, schedule: Q04DX003 (ip), vehicle: saline with Tween-80 98 % of control | endpoint: mean survival time, dose: 25.0 mg/kg/injection, schedule: Q01DX001 (ip), vehicle: saline with Tween-80 90 % of control | [11] 105 % of control | endpoint: mean survival time, dose: 25.0 mg/kg/injection, schedule: Q04DX003 (ip), vehicle: saline with Tween-80 93 % of control and 97 % of control | endpoint: mean survival time, dose: 50.0 mg/kg/injection, schedule: Q01DX001 (ip), vehicle: saline with Tween-80 98 % of control | [7] 89 % of control | endpoint: mean survival time, dose: 50.0 mg/kg/injection, schedule: Q04DX003 (ip), vehicle: saline with Tween-80 101 % of control | [1] 93 % of control | [4] 101 % of control | [2] 98 % of control and 97 % of control | [5] 89 % of control | [3] 100 % of control | [13] 86 % of control

COc1ccc(C2(C#N)CCCC2)cc1
inactive: endpoint: mean survival time, dose: 100.0 mg/kg/injection, schedule: Q01DX009 (ip), vehicle: saline sonified 94 % of control | [2] 97 % of control | endpoint: mean survival time, dose: 200.0 mg/kg/injection, schedule: Q01DX009 (ip), vehicle: saline sonified 102 % of control | [3] 101 % of control | endpoint: mean survival time, dose: 400.0 mg/kg/injection, schedule: Q01DX009 (ip), vehicle: saline sonified 96 % of control | [13] 95 % of control

CC(=O)/C=C\C1OC(n2ccc(=O)[nH]c2=O)C2OC(C)(C)OC12 (centres undefined)
inactive: endpoint: mean survival time, dose: 12.5 mg/kg/injection, schedule: Q01DX005 (ip), vehicle: distilled water + Tween-80 105 % of control | endpoint: mean survival time, dose: 25.0 mg/kg/injection, schedule: Q01DX005 (ip), vehicle: distilled water + Tween-80 103 % of control | endpoint: mean survival time, dose: 50.0 mg/kg/injection, schedule: Q01DX005 (ip), vehicle: distilled water + Tween-80 97 % of control | endpoint: mean survival time, dose: 100.0 mg/kg/injection, schedule: Q01DX005 (ip), vehicle: distilled water + Tween-80 102 % of control | endpoint: mean survival time, dose: 200.0 mg/kg/injection, schedule: Q01DX005 (ip), vehicle: distilled water + Tween-80 103 % of control

CC1(C)N=C(N)N=C(N)N1c1cccc(Cl)c1Cl
inactive: endpoint: mean survival time, dose: 5.0 mg/kg/injection, schedule: Q04DX003 (ip), vehicle: saline 105 % of control | endpoint: mean survival time, dose: 10.0 mg/kg/injection, schedule: Q04DX003 (ip), vehicle: saline 112 % of control | endpoint: mean survival time, dose: 20.0 mg/kg/injection, schedule: Q04DX003 (ip), vehicle: saline 115 % of control

Cn1c(=O)cc(C(=O)NCCCN2CCOCC2)c2ccccc21
inactive: [2] 92 % of control | [3] 96 % of control | [13] 87 % of control

CCN(CC)Cc1ccccc1COC(=O)c1ccccc1
inactive: endpoint: mean survival time, dose: 100.0 mg/kg/injection, schedule: Q04DX002 (ip), vehicle: saline 98 % of control | endpoint: mean survival time, dose: 200.0 mg/kg/injection, schedule: Q04DX002 (ip), vehicle: saline 111 % of control

O=C(O)C1C2c3ccccc3C(C1C(=O)O)[n+]1ccccc12 (centres undefined)
inactive: [8] 96 % of control | [9] 102 % of control | [10] 93 % of control

CCOC(=O)NCC[N+](C)(C)C
inactive: endpoint: mean survival time, dose: 6.25 mg/kg/injection, schedule: Q04DX003 (ip), vehicle: saline 100 % of control | [14] 102 % of control | [15] 105 % of control

C=CCn1c(NCCN(CC)CC)nc2ccc(Cl)cc2c1=O
inactive: endpoint: mean survival time, dose: 12.5 mg/kg/injection, schedule: Q01DX009 (ip), vehicle: saline sonified 105 % of control | [14] 100 % of control | endpoint: mean survival time, dose: 25.0 mg/kg/injection, schedule: Q01DX009 (ip), vehicle: saline sonified 100 % of control | [15] 100 % of control | endpoint: mean survival time, dose: 50.0 mg/kg/injection, schedule: Q01DX009 (ip), vehicle: saline sonified 103 % of control | [16] 101 % of control
